Tests used:
Format in all cases: cell-based
[1] = system: human SMC from fibroproliferative vascular lesions; experiment: Cell proliferation: DNA synthesis (3H-thymidine) in SMC; conditions: for reversibility of cytostatic effect upon withdrawal: corrected for cell number
Method: The effect of the structural hydroxypyridone analog kojic acid is shown for comparison. Serum-stimulated DNA synthesis in SMC was determined by a 4-hour pulse of ^3 H-thymidine given 20 hours after treatment with L-mimosine and kojic acid (filled symbols). Identically treated, but unlabeled cells cultured in parallel, at that time point were washed and returned to fresh culture media without inhibitor for an additional 20 hours prior to otherwise identical labeling with ^3 H-thymidine (open symbols). Data is expressed as ^3 H-thymidine incorporated per cell to compensate for the reduced cell number in the wake of inhibitor treatment.
Inhibition of DNA synthesis was examined by semiautomated methods. SMC were plated at 1×10^4 cells/well in 96-well microtiter plates at least 24 hours prior to the assay. Agents were introduced into normal serum-containing growth media for 20 hours before the cells were pulsed with ^3 H-thymidine (1 μCi/ml) for 4 hours. Cells were collected with a cell harvester and the DNA-incorporated label determined by scintillation counting (Betaplate; Wallac, Inc., Gaithersburg, Md.) (n=6 per point).

[2] = system: prolyl 4-hydroxylase in human lung fibroblast line MRC-5; experiment: Assay of cellular human prolyl 4-hydroxylase / collagen secretion in MRC-5 lung fibroblasts; conditions: human lung fibroblasts MRC-5, FIG. 5a-f
Method: FIGS. 5a-f show, as percent of uninhibited controls, the suppressive effect of six hydroxypyridone compounds on prolyl 4-hydroxylation in a human lung fibroblast line ("MRC-5"). Those cells were pretreated with inhibitor for 30 minutes prior to routine metabolic labeling with tritiated proline ("Pro") for 24 hours, followed by standard hydrolysis and separation of amino acids from both supernatant and cells for determination of proline conversion into hydroxyproline ("Hyp").
The established human lung fibroblast line MRC-5 was used, maintained, and propagated by routine cell culture techniques.
SMC or MRC-5 cells (3-5×10^6 cells/35 mm well) were labeled in the presence or absence of hydroxypyridones, with ^3 H-proline (Pro) (4 μCi/ml) for 24 hours in proline- and serum-free Dulbecco […] ("DMEM") containing 50 μg/ml sodium ascorbate and 20 μg/ml β-aminopropionitrile. […] The hydrolysate was derivatized with phenylisothiocyanate and analyzed for ^3 H-proline ("Pro") and ^3 H-hydroxyproline ("Hyp") by HPLC on a reverse-phase C18 column, using an automated HPLC system (Hewlett-Packard, Wilmington, Del.) with an in-line scintillation counter (Inus Systems, Inc., Tampa, Fla.). The position of proline and hydroxyproline was determined from tritiated standards.

[3] = target: T1, cellular human deoxyhypusyl hydroxylase (Homo sapiens, UniProt Q9BU89); experiment: Cellular human deoxyhypusyl hydroxylase (DOHH assay, 3H-spermidine labeling)
T1 construct: endogenous in cells; host or cells: cultured human cells (smooth muscle cells, B-lymphocytes)
T1 sequence (Q9BU89 1-302): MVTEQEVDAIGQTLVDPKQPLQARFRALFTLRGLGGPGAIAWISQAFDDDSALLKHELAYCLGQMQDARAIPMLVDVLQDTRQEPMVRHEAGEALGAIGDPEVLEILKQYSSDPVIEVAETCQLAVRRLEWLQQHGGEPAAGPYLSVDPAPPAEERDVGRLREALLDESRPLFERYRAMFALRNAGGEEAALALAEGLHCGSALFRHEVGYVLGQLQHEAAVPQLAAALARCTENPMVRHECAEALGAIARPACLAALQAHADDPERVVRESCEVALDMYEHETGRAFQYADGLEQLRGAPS
From the text: The inhibitory action of the substances according to the invention, for example on collagen secretion or cell proliferation, can be tested in direct assays of the enzymes mediating the pivotal protein hydroxylations for these biological processes, such as prolyl 4-hydroxylase and deoxyhypusyl hydroxylase. This entails the enzymatic hydroxylation of the appropriate protein precursor, either by the cellular or the purified enzyme, in the presence or absence of compounds of Formulae (I) or (II), with concomitant determination of co-substrate utilization by these enzymes or subsequent isolation of the hydroxylated amino acid and its unhydroxylated precursor. In this manner, the inhibitory potency of any given compound can be measured in the cell-free system, in cell culture, or in tissue, and is expressed as the inhibitory dose that gives a 50% reduction of the enzyme-mediated reaction (ID50). Enzyme is tested in analogy to the method of A. Abbruzzese, H. M. Hanauske-Abel, et al., Biochem. Biophys. Acta, 1077, 159-166 (1991) and of K. Majamaa, H. M. Hanauske-Abel, et al., Eur. J. Biochem. 138, 239-245 (1984), which are hereby incorporated by reference. Table III lists the ID50 values of some of the compounds according to the invention, using purified human prolyl 4-hydroxylase and cellular human deoxyhypusyl hydroxylase as representative protein hydroxylases.
The inhibiting effect of hydroxypyridones on the eIF-5A-hydroxylating enzyme was studied in cultured human cells (i.e. smooth muscle cells, B-lymphocytes).
The cellular conversion of the precursor deoxyhypusine to the hydroxylated hypusine in cells was examined, after preincubation with the inhibitor for 60 minutes, by labeling the human cells with ^3 H-spermidine (5 μCi/ml) in 25 cm^2 flasks (1×10^6 cells/flask) for 24 hours prior to cell lysis, precipitation with 10% TCA containing 1 mM each of putrescine, spermidine, and spermine, and hydrolysis in 6 N HCl at 110° C. for 16 hours. The hydrolysate was analyzed for labeled amino acids on an amino acid analyzer by published methods (Park et al., J. Biol. Chem., 257:7217-7222 (1982), which is hereby incorporated by reference). The retention of purified hypusine and deoxyhypusine was determined from standards.

Compound: N[C@@H](Cn1ccc(=O)c(O)c1)C(=O)O [L-Mimosine]
- non-specific or toxic effects ([1]; FIGS. 6, 7): did not result from non-specific or toxic effects
- reversibility of cytostatic effect upon withdrawal ([1]; FIG. 7, listed as L-mimosine): non-toxic reversibility
- reversibility of cytostatic effect upon withdrawal ([1]; FIG. 7, listed as mimosine): fully reversible
- rebound effect on DNA synthesis ([1]; following inhibitor removal and additional 24-hour recovery): marked rebound effect
- inhibition of DNA synthesis ([1]; lesion-derived SMC, initial 24-hour treatment, FIG. 7): DNA synthesis was inhibited
- reversibility of suppressive effects (collagen secretion, onset of DNA synthesis) ([1]; upon removal of compound): reversible
- secretion of hydroxyproline-containing proteins (collagen secretion) [2]: selectively inhibited
- inhibition of deoxyhypusyl hydroxylase ([3]; FIG. 3, assayed in vitro): directly inhibit
- Deoxyhypusyl hydroxylase ID50 (cellular) ([3]; cellular human enzyme, inhibitory dose that gives 50% reduction of the enzyme-mediated reaction, unit assumed): 65 µM
